Test results from patent publication US10344032B2, “Agents for treating neurogenic inflammation and neuropathic hyperalgesia related disorders” (PÉCSI TUDOMÁNYEGYETEM, priority 2014, dated 2019).
Counter-ions that a name gives are not always drawn.

How the values were obtained:
[1] = biological target: T1, sst4 receptor (Homo sapiens, UniProt P31391); assay: Somatostatin sst4 receptor-coupled G-protein activation assay ([35S]GTPγS binding); type: biochemical; conditions: 100 nM concentration; membrane fractions of CHO cells stably expressing the sst4 receptor; percentage over specific binding in absence of agonists
T1 construct: expressed in transfected cells
Excerpt: [^35S]GTPγS binding assay is a functional test determining agonist-induced and receptor-mediated G-protein activation which is based on the increase in guanine nucleotide exchange at G-proteins upon agonist stimulation. The interaction of a G protein-coupled receptor (GPCR) with the G protein is the first step in the transduction of the receptor binding signal to the activation of the second-messenger systems. We measured the level of [^35S]-GTPγS bound to the α subunit of G proteins and determined the efficacy of the compounds. Compounds which elicited 200% [^35S]GTPγS binding in nanomolar concentration were considered effective agonist. The examined compounds were added into the medium in 1 nM, 10 nM, 100 nM 1 μM and 10 μM concentrations.
Membrane fractions were prepared from CHO cells stably expressing the sst4 receptor in Tris-EGTA buffer (50 mM Tris-HCl, 1 mM EGTA, 3 mM MgCl2, 100 mM NaCl, pH 7.4). These membrane fractions (˜10 μg of protein/sample) were incubated at 30° C. for 60 min in the same Tris-EGTA buffer containing [^35S]GTPγS (0.05 nM) and increasing concentrations (10^−9 to 10^−5 M) of test compounds in the presence of 30 μM GDP in a final volume of 500 μl. Non-specific binding was determined in the presence of 10 μM unlabelled GTPγS. Total binding was measured in the absence of test compounds. To calculate the specific binding, non-specific binding was subtracted from total binding. The reaction was terminated by filtrating the samples through Whatman GF/B glass fiber filters. Using 48-well Slot Blot Manifold from Cleaver Scientific filters were washed three times with ice-cold 50 mM Tris-HCl buffer (pH 7.4). After drying for 60 min at 37° C., radioactivity was measured in scintillation liquid in a Packard Tri-Carb 2800 TR scintillation counter. Test compound-induced G-protein stimulation was given as percentage over the specific [^35S]GTPγS binding observed in the absence of agonists.

[2] = system: sensory nerve terminals of isolated rat tracheae; assay: Electrical field stimulation-induced release of CGRP from sensory nerve terminals of isolated rat tracheae; conditions: 500 nM; absolute release = stimulated + post-stimulated fractions minus basal release
Procedure: Rats were exsanguinated in deep anaesthesia (sodium thiopental, 50 mg/kg i.p.), then the whole trachea was removed and cleaned of fat and adhering connective tissues. Tracheae from two rats were placed into the same 1.8 ml organ bath to obtain sufficient amount of released peptide and perfused (1 ml/min) with pH—(7.2) controlled oxygenized Krebs solution for 60 minutes (equilibration period) at 37° C. temperature. After discontinuation of the flow, the solution was changed three times for 8 minutes to produce pre-stimulated, stimulated, post-stimulated fractions. Electrical field stimulation (40 V, 0.1 ms, 10 Hz for 120 s; 1200 pulses) was performed to elicit neurotransmitter release at the beginning of the second 8-minute period. […]
CGRP concentration was determined from 400-400 μl samples of the organ bath solutions by means of a selective and sensitive radioimmunoassay method developed in our laboratories and described in details in several previous papers (Nemeth et al. 1998, 1999, 2006; Helyes et al., 1997, 2001, 2006; Borzsei et al., 2008). The released amount of the peptides was calculated as fmol peptide per mg wet tissue (trachea). The absolute EFS-induced CGRP outflow in each experiment was calculated by taking off the basal release measured in the first (pre-stimulated) fraction from the second and third 8-min fractions and then adding these values. […]

[3] = system: rat; assay: Plantar incision-induced mechanical allodynia (dynamic plantar aesthesiometer), postoperative pain model; type: in vivo; conditions: 100 μg/kg p.o., measured 60 min later; one day after plantar incision; dynamic plantar aesthesiometry
Procedure: Rats were anaesthesized with sodium-pentobarbital (Euthasol, 40 mg/kg i.p.) and a 1 cm longitudinal incision was made through the skin, fascia and muscle of the plantar aspect of the hindpaw. Significant decrease of both the thermonociceptive and mechanonociceptive thresholds (heat and mechanical allodynia) of the paw develops 1 day after this procedure.
One hundred and forty five (145) female Wistar rats (150-250 g) kept in the Animal House of the University of Pecs in a temperature-controlled room provided with a 12-hour light-dark cycle, standard rat chow and water ad libitum were used in this experimental series. They were brought to the air-conditioned laboratory the day before the experiment started. Throughout the total study the same assistant handled all the animals. […] Touch sensitivity was measured with a dynamic plantar aesthesiometer (DPA) and the thermonociceptive threshold was determined with an increasing temperature water-bath (ITWB) on the same rats (see below). […] Test compounds were administered p.o. and post-dose touch sensitivity and thermonociceptive thresholds were measured 60 min later. […]
a) Touch sensitivity of the plantar surface of the paw was measured with the Ugo Basile Dynamic Plantar Aesthesiometer (DPA; 37400, Comerio, Italy), which is an electronic von Frey device. […]

T1 sequence (P31391 whole entry): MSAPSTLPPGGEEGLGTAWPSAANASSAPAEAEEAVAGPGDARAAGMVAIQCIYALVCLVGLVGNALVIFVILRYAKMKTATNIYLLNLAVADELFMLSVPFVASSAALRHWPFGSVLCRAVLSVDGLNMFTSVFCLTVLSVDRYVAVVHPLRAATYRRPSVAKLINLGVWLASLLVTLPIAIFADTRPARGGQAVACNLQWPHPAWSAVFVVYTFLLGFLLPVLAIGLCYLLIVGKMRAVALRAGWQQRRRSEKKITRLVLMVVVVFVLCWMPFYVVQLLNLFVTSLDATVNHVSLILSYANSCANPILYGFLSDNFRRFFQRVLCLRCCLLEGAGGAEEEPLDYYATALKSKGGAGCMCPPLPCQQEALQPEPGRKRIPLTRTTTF

With `COc1cccc(CCNc2ncnc3c2c(C)c(C)n3Cc2ccccc2)c1` [Example 40, (7-Benzyl-5,6-dimethyl-7H-pyrrolo[2,3-d]pyrimidin-4-yl)-[2-(3-methoxy-phenyl)-ethyl]-amine] the “[35S]GTPγS binding (G-protein activation)” value (“[35S]GTPγS binding” for short) [1] was 202.67% and the melting point was 185 to 187.2 °C.

With `COc1ccc(CCNc2ncnc3c2c(C)c(C)n3CCCN(C)C)cc1` [Example 41, [7-(3-Dimethylamino-propyl)-5,6-dimethyl-7H-pyrrolo[2,3-d]pyrimidin-4-yl]-[2-(4-methoxy-phenyl)-ethyl]-amine] the “[35S]GTPγS binding” value [1] was 207.67%.

In the case of `CC(=O)Nc1ccc(CCNc2ncnc3c2ccn3Cc2ccccc2)cc1` [Example 47, N-{4-[2-(7-Benzyl-7H-pyrrolo[2,3-d]pyrimidin-4-ylamino)-ethyl]-phenyl}-acetamide], the melting point is reported as 228 to 229.5 °C.

With `Oc1ccc(CCNc2ncnc3c2ccn3Cc2ccccc2)cc1` [Example 60, 4-[2-(7-Benzyl-7H-pyrrolo[2,3-d]pyrimidin-4-ylamino)-ethyl]-phenol] the melting point was 199.2 to 200.6 °C.

For `Cc1c(C)n(Cc2ccccc2)c2ncnc(NCCc3ccc(NS(C)(=O)=O)cc3)c12` [Example 5, N-{4-[2-(7-Benzyl-5,6-dimethyl-7H-pyrrolo[2,3-d]pyrimidin-4-ylamino)-ethyl]-phenyl}-methanesulfonamide], the melting point was 175.7 to 176.4 °C.

In the case of `COc1ccc(CCNc2ncnc3c2c(C)c(C)n3Cc2ccccc2)cc1` [Example 2, (7-Benzyl-5,6-dimethyl-7H-pyrrolo[2,3-d]pyrimidin-4-yl)-[2-(4-methoxy-phenyl)-ethyl]-amine], the “[35S]GTPγS binding” value [1] is reported as 245.67%, the melting point is reported as 100 to 101.9 °C and the “inhibition on the absolute CGRP release” value [2] is reported as 72.5%.

With `Cc1c(C)n(Cc2ccccc2)c2ncnc(NCCc3cccc(O)c3)c12` [Example 58, 3-[2-(7-Benzyl-5,6-dimethyl-7H-pyrrolo[2,3-d]pyrimidin-4-ylamino)-ethyl]-phenol] the “decrease of mechanical allodynia” value [3] was 64.7%, the “[35S]GTPγS binding” value [1] was 194.5% and the melting point was 208.7 to 209.2 °C.

`COc1ccc(CCNc2ncnc3c2ccn3Cc2cncc(Br)c2)cc1` [Example 38, [7-(5-Bromo-pyridin-3-ylmethyl)-7H-pyrrolo[2,3-d]pyrimidin-4-yl]-[2-(4-methoxy-phenyl)-ethyl]-amine] gave a melting point of 100.4 to 100.7 °C.

Work on `Cc1c(C)n(Cc2cccc(Cl)c2)c2ncnc(NCCc3ccc(NC(=O)c4ccccc4)cc3)c12` [Example 44, N-(4-{2-[7-(3-Chloro-benzyl)-5,6-dimethyl-7H-pyrrolo[2,3-d]pyrimidin-4-ylamino]-ethyl}-phenyl)-benzamide] yielded a melting point of 151 to 152.3 °C.

In the case of `Cc1c(C)n(Cc2ccccc2)c2ncnc(NCCc3ccc(NC(=O)c4ccc(Cl)cc4)cc3)c12` [Example 49, N-{4-[2-(7-Benzyl-5,6-dimethyl-7H-pyrrolo[2,3-d]pyrimidin-4-ylamino)-ethyl]-phenyl}-4-chloro-benzamide], the melting point is reported as > 270 °C.

`Cc1c(C)n(Cc2ccco2)c2ncnc(NCCc3ccc(N)cc3)c12` [Example 10, [2-(4-Amino-phenyl)-ethyl]-(7-furan-2-ylmethyl-5,6-dimethyl-7H-pyrrolo[2,3-d]pyrimidin-4-yl)-amine] showed a melting point of 150 to 151.5 °C.

`COc1ccc(CCNc2ncnc3c2ccn3Cc2ccccc2)cc1OC` [Example 24, (7-Benzyl-7H-pyrrolo[2,3-d]pyrimidin-4-yl)-[2-(3,4-dimethoxy-phenyl)-ethyl]-amine] showed a melting point of 177.3 to 178.3 °C.

`Fc1cccc(CCNc2ncnc3c2ccn3Cc2ccccc2)c1` [Example 27, (7-Benzyl-7H-pyrrolo[2,3-d]pyrimidin-4-yl)-[2-(3-fluoro-phenyl)-ethyl]-amine] gave a melting point of 116 to 117.5 °C.

Compound `Cc1c(C)n(Cc2ccco2)c2ncnc(NCCc3ccc(O)cc3)c12` [Example 59, 4-[2-(7-Furan-2-ylmethyl-5,6-dimethyl-7H-pyrrolo[2,3-d]pyrimidin-4-ylamino)-ethyl]-phenol] has a melting point of 165 to 167 °C.

With `Cc1c(C)n(CCCN(C)C)c2ncnc(NCCc3cccc(F)c3)c12` (as salt: salt) [Example 17, [7-(3-Dimethylamino-propyl)-5,6-dimethyl-7H-pyrrolo[2,3-d]pyrimidin-4-yl]-[2-(3-fluoro-phenyl)-ethyl]-amine] the melting point was 239 to 240.2 °C.

With `Cc1c(C)n(Cc2ccccc2)c2ncnc(NCCc3ccccc3Cl)c12` [Example 42, (7-Benzyl-5,6-dimethyl-7H-pyrrolo[2,3-d]pyrimidin-4-yl)-[2-(2-chloro-phenyl)-ethyl]-amine] the melting point was 223 to 227 °C.

For `Nc1ccc(CCNc2ncnc3c2ccn3Cc2ccccc2)cc1` [Example 8, [2-(4-Amino-phenyl)-ethyl]-(7-benzyl-7H-pyrrolo[2,3-d]pyrimidin-4-yl)-amine], the melting point was > 260 °C.
